Test results: US20260207623A1, “USE OF ESTETROL IN HEPATICALLY IMPAIRED PATIENTS” (ESTETRA SRL, priority 2022, published 2026)

What was measured:
post-menopausal women = test: Example 2: number of patients with endometrial biopsies; format: in vivo, human
Protocol: If during the course of the trial, a double layer endometrial thickness≥15 mm was detected on TVUS and/or abnormal uterine bleeding (in the judgement of the gynecologist in light of the estrogen therapy) was reported by a non-hysterectomied person, they underwent an endometrial biopsy and was treated with progestin (10 mg dydrogesterone) QD until end of Week 11 in a sequential way (i.e., a 14 day progestin treatment period followed by a 14 day progestin treatment pause) in addition to the E4/placebo treatment. […] If an abnormal uterine bleeding occurred again after a first normal endometrial biopsy, a thorough gynaecological examination and a TVUS were performed. If necessary in the judgment of the gynecologist, a second endometrial biopsy was performed.
1. Number of Patients with Biopsies

[1] = system: triglycerides, glucose, cholesterol, HDL-cholesterol, LDL-cholesterol level; test: Example 2 section F: lipid parameters and glucose level (triglycerides, glucose, cholesterol, HDL-cholesterol, LDL-cholesterol) at 15 mg and 20 mg daily doses; format: in vivo, human
Protocol: In order to better assess the potential for increasing the daily dose beyond the minimum effective dose of 15 mg estetrol monohydrate daily, a number of parameters were followed in a study where estetrol monohydrate was administered at the increased dose of 20 mg per day.
1. Triglycerides Level (mmol/L)
2. Glucose Level (mmol/L)
3. Cholesterol Level (mmol/L)
4. HDL-Cholesterol Level (mmol/L)
5. LDL-Cholesterol Level (mmol/L)

C[C@]12CC[C@@H]3c4ccc(O)cc4CC[C@H]3[C@@H]1[C@@H](O)[C@@H](O)[C@@H]2O [E4 monohydrate, estetrol monohydrate]
Number of patients with biopsies (post-menopausal women; 2.5 mg daily): 4 | Number of patients with biopsies (post-menopausal women; 5 mg daily): 5 | Number of patients with biopsies (post-menopausal women; 10 mg daily): 11 | Number of patients with biopsies (post-menopausal women; 15 mg daily): 9 | requirements for biopsies (post-menopausal women; 15 mg per day group compared with 10 mg per day group): less requirements for biopsies | Cholesterol level, Baseline, Mean ([1]; 15 mg daily): 5.51 mmol/L | Cholesterol level, Baseline, Median ([1]; 15 mg daily): 5.62 mmol/L | Glucose level, Baseline, Mean ([1]; 15 mg daily): 4.77 mmol/L | Glucose level, Baseline, Median ([1]; 15 mg daily): 4.72 mmol/L | HDL-Cholesterol level, Baseline, Mean ([1]; 15 mg daily): 1.73 mmol/L | HDL-Cholesterol level, Baseline, Median ([1]; 15 mg daily): 1.66 mmol/L | LDL-Cholesterol level, Baseline, Mean ([1]; 15 mg daily): 3.05 mmol/L | LDL-Cholesterol level, Baseline, Median ([1]; 15 mg daily): 3.22 mmol/L | Triglycerides level, Baseline, Mean ([1]; 15 mg daily): 1.32 mmol/L | Triglycerides level, Baseline, Median ([1]; 15 mg daily): 1.21 mmol/L | Cholesterol level, End Of Treatment Actual Change from Baseline, Mean ([1]; 15 mg daily, after 12 weeks): 0.12 mmol/L | Cholesterol level, End Of Treatment Actual Change from Baseline, Median ([1]; 15 mg daily, after 12 weeks): 0.08 mmol/L | Cholesterol level, End Of Treatment Actual Value, Mean ([1]; 15 mg daily, after 12 weeks): 5.63 mmol/L | Cholesterol level, End Of Treatment Actual Value, Median ([1]; 15 mg daily, after 12 weeks): 5.71 mmol/L | Glucose level, End Of Treatment Actual Change from Baseline, Mean ([1]; 15 mg daily, after 12 weeks): 0.02 mmol/L | Glucose level, End Of Treatment Actual Change from Baseline, Median ([1]; 15 mg daily, after 12 weeks): 0.05 mmol/L | Glucose level, End Of Treatment Actual Value, Mean ([1]; 15 mg daily, after 12 weeks): 4.79 mmol/L | Glucose level, End Of Treatment Actual Value, Median ([1]; 15 mg daily, after 12 weeks): 4.77 mmol/L | HDL-Cholesterol level, End Of Treatment Actual Change from Baseline, Mean ([1]; 15 mg daily, after 12 weeks): 0.16 mmol/L | HDL-Cholesterol level, End Of Treatment Actual Change from Baseline, Median ([1]; 15 mg daily, after 12 weeks): 0.17 mmol/L | HDL-Cholesterol level, End Of Treatment Actual Value, Mean ([1]; 15 mg daily, after 12 weeks): 1.89 mmol/L | HDL-Cholesterol level, End Of Treatment Actual Value, Median ([1]; 15 mg daily, after 12 weeks): 1.81 mmol/L | LDL-Cholesterol level, End Of Treatment Actual Change from Baseline, Mean ([1]; 15 mg daily, after 12 weeks): 0.09 mmol/L | LDL-Cholesterol level, End Of Treatment Actual Change from Baseline, Median ([1]; 15 mg daily, after 12 weeks): 0.10 mmol/L | LDL-Cholesterol level, End Of Treatment Actual Value, Mean ([1]; 15 mg daily, after 12 weeks): 3.14 mmol/L | LDL-Cholesterol level, End Of Treatment Actual Value, Median ([1]; 15 mg daily, after 12 weeks): 3.25 mmol/L | Triglycerides level, End Of Treatment Actual Change from Baseline, Mean ([1]; 15 mg daily, after 12 weeks): 0.20 mmol/L | Triglycerides level, End Of Treatment Actual Change from Baseline, Median ([1]; 15 mg daily, after 12 weeks): 0.15 mmol/L | Triglycerides level, End Of Treatment Actual Value, Mean ([1]; 15 mg daily, after 12 weeks): 1.61 mmol/L | Triglycerides level, End Of Treatment Actual Value, Median ([1]; 15 mg daily, after 12 weeks): 1.40 mmol/L | Cholesterol level, Baseline, Mean ([1]; 20 mg daily): 6.27 mmol/L | Cholesterol level, Baseline, Median ([1]; 20 mg daily): 6.25 mmol/L | Glucose level, Baseline, Mean ([1]; 20 mg daily): 5.53 mmol/L | Glucose level, Baseline, Median ([1]; 20 mg daily): 5.60 mmol/L | HDL-Cholesterol level, Baseline, Mean ([1]; 20 mg daily): 1.68 mmol/L | HDL-Cholesterol level, Baseline, Median ([1]; 20 mg daily): 1.60 mmol/L | LDL-Cholesterol level, Baseline, Mean ([1]; 20 mg daily): 3.94 mmol/L | LDL-Cholesterol level, Baseline, Median ([1]; 20 mg daily): 4.00 mmol/L | Triglycerides level, Baseline, Mean ([1]; 20 mg daily): 1.43 mmol/L | Triglycerides level, Baseline, Median ([1]; 20 mg daily): 1.40 mmol/L | lipid parameters and glucose level ([1]; 20 mg daily dose in place of 15 mg daily dose): do not behave significantly differently | Cholesterol level, End Of Treatment Actual Change from Baseline, Mean ([1]; 20 mg daily, after 28 days): -0.18 mmol/L | Cholesterol level, End Of Treatment Actual Change from Baseline, Median ([1]; 20 mg daily, after 28 days): -0.20 mmol/L | Cholesterol level, End Of Treatment Actual Value, Mean ([1]; 20 mg daily, after 28 days): 6.09 mmol/L | Cholesterol level, End Of Treatment Actual Value, Median ([1]; 20 mg daily, after 28 days): 6.10 mmol/L | Glucose level, End Of Treatment Actual Change from Baseline, Mean ([1]; 20 mg daily, after 28 days): -0.10 mmol/L | Glucose level, End Of Treatment Actual Change from Baseline, Median ([1]; 20 mg daily, after 28 days): -0.15 mmol/L | Glucose level, End Of Treatment Actual Value, Mean ([1]; 20 mg daily, after 28 days): 5.44 mmol/L | Glucose level, End Of Treatment Actual Value, Median ([1]; 20 mg daily, after 28 days): 5.60 mmol/L | HDL-Cholesterol level, End Of Treatment Actual Change from Baseline, Mean ([1]; 20 mg daily, after 28 days): 0.29 mmol/L | HDL-Cholesterol level, End Of Treatment Actual Change from Baseline, Median ([1]; 20 mg daily, after 28 days): 0.35 mmol/L | HDL-Cholesterol level, End Of Treatment Actual Value, Mean ([1]; 20 mg daily, after 28 days): 1.97 mmol/L | HDL-Cholesterol level, End Of Treatment Actual Value, Median ([1]; 20 mg daily, after 28 days): 1.90 mmol/L | LDL-Cholesterol level, End Of Treatment Actual Change from Baseline, Mean ([1]; 20 mg daily, after 28 days): -0.51 mmol/L | LDL-Cholesterol level, End Of Treatment Actual Change from Baseline, Median ([1]; 20 mg daily, after 28 days): -0.65 mmol/L | LDL-Cholesterol level, End Of Treatment Actual Value, Mean ([1]; 20 mg daily, after 28 days): 3.43 mmol/L | LDL-Cholesterol level, End Of Treatment Actual Value, Median ([1]; 20 mg daily, after 28 days): 3.45 mmol/L | Triglycerides level, End Of Treatment Actual Change from Baseline, Mean ([1]; 20 mg daily, after 28 days): 0.10 mmol/L | Triglycerides level, End Of Treatment Actual Change from Baseline, Median ([1]; 20 mg daily, after 28 days): 0.10 mmol/L | Triglycerides level, End Of Treatment Actual Value, Mean ([1]; 20 mg daily, after 28 days): 1.53 mmol/L | Triglycerides level, End Of Treatment Actual Value, Median ([1]; 20 mg daily, after 28 days): 1.40 mmol/L
